# Source: patent publication US20210069198A1 (HANYI BIO-TECHNOLOGY (BEIJING) CO., LTD., priority 2017, published 2021)
# Test system: rat anxiety behavior induced by high-dose intake of caffeine
# Assay: Elevated plus-maze test, Test 1: CBD against caffeine-induced anxiety behavior
# Assay type: in vivo, wistar rats
# Method: Test Animals: 50 SPF male wistar rats (180-200 g). Feeding Conditions: SPF animal houses, free feeding, 12 h light/12 h darkness.
# Each CBD administration group was also intragastrically administrated with a corresponding dose of a CBD soybean oil solution at the same time, and then an elevated plus-maze test was conducted within 30 minutes after administration.
# Elevated Plus-maze (EMP) Test: A maze was cross-shaped and consists of 2 open arms (OAs), two closed arms (CAs) and a central platform. The maze was fixed on a support, 50 cm above the ground. A camera was placed above the central platform. The behaviors of rats were recorded and analyzed through a computer. The test was conducted in a quiet shaded condition. Before the test, the rats to be tested were placed in one rat cage. After freely exploring for 5 minutes, the rats were quickly placed on the central platform of the EMP. The observation test was started immediately after release. Each rat was tested for five minutes. After each rat was tested, the maze was thoroughly cleaned with a towel dipped in clean water and low-concentration ethanol. After the ethanol volatilizes and diffuses, the test on the next rat began.
# (1) Open arm entry (OE): the number of entries into any open arm was based on the fact that four paws of each rat were located within the arms, and when any paw was completely withdrawn from the arms halfway, the current entry event was deemed as being completed.
# (2) Open arm time (OT): it was measured in second.
# (3) Closed arm entry (CE): the number of entries into any closed arm, which was determined based on the same standard as OE.
# (4) Closed arm time (CT): it was measured in second.
# (5) Calculation of the proportion of the number of entries into the open arm (OE %): namely, OE/(OE+CE)×100%.
# (6) Proportion of residence time in the open arms (OT %): namely, OT/(OT+CT)×100%. OE % and OT % were used as indexes for evaluating the anxiety state of rats.
# The data was expressed with x±s. One-way analysis of variance (one way ANOVA) was used to compare multi-sample means, and t test was used for inter-group comparison.
# [1] = caffeine model group, 60 mg/kg caffeine intragastric, no CBD
# [2] = CBD 1 mg/kg intragastric together with 60 mg/kg caffeine
# [3] = CBD 10 mg/kg intragastric together with 60 mg/kg caffeine
# [4] = CBD 100 mg/kg intragastric together with 60 mg/kg caffeine
smiles,measurement,setting,value
Cn1c(=O)c2c(ncn2C)n(C)c1=O [Caffeine],CE (closed arm entry),[1],7.8 ± 0.11 times
same,CT (closed arm time),[1],253 ± 5.09 s
same,OE % (proportion of entries into the open arm),[1],21.21%
same,OT (open arm time),[1],42.9 ± 1.89 s
same,OE (open arm entry),"caffeine model group, 60 mg/kg caffeine saline solution intragastric, no CBD, EPM within 30 min, 5 min test",2.1 ± 0.78 times
"C=C(C)[C@@H]1CCC(C)=C[C@H]1c1c(O)cc(CCCCC)cc1O [CBD, Cannabidiol]",OE (open arm entry),CBD 1 mg/kg in soybean oil intragastric together with 60 mg/kg caffeine,3.2 ± 0.45 times
same,CE (closed arm entry),[2],7.0 ± 0.92 times
same,CT (closed arm time),[2],244 ± 5.14 s
same,OE % (proportion of entries into the open arm),[2],31.37%
same,OT % (proportion of residence time in the open arms),[2],19.24%
same,OT (open arm time),[2],58.1 ± 3.30 s
same,CE (closed arm entry),[3],5.3 ± 1.07 times
same,CT (closed arm time),[3],214 ± 4.01 s
same,OE % (proportion of entries into the open arm),[3],47.52%
same,OE (open arm entry),[3],4.8 ± 0.91 times
same,OT % (proportion of residence time in the open arms),[3],28.43%
same,OT (open arm time),[3],85 ± 2.07 s
same,CE (closed arm entry),[4],4.5 ± 0.91 times
same,CT (closed arm time),[4],201 ± 3.05 s
same,OE % (proportion of entries into the open arm),[4],54.00%
same,OE (open arm entry),[4],5.4 ± 0.25 times
same,OT % (proportion of residence time in the open arms),[4],33.22%
same,OT (open arm time),[4],100 ± 1.32 s
same,effect on the anxiety behavior of rats (in words),CBD 1-100 mg/kg intragastric together with 60 mg/kg caffeine,significant effect on inhibiting the anxiety behavior
